Reference: patent US7041677B2, “Use of monochloroflosequinan in the treatment of sexual dysfunction” (R.T. Alamo Ventures I, LLC, priority 2002, dated 2006)
Values joined by “and” are separate entries in the source; they are usually repeats but may differ in a detail not shown here. Identical values can stand only once. Marks after values point to notes of the source that are not given here.

Tested on: male Cynomolgus monkeys (Macaca fascicularis)
Assay: Erection monitoring after single intracavernosal dose
Type: in vivo
Set-up: key to Onset Score / Duration Score: 0: no response; erection but transient—less than 1 minute; 2: erection lasting at least 1 minute but less than 5 minutes; 3: erection lasting at least 5 minutes but less than 7 minutes; 4: erection lasting longer than 7 minutes
Details: for Erection Score: Erection Score=2D+O; for Onset of Erection: minutes post administration; for Erection Index: Erection Score/n, n=number of animals (4 monkeys); for inducing penile erections: Cynomolgus monkeys, intracavernosal, summary of Tables 4 & 5
Procedure: In this example, various halogenated derivatives of flosequinan were evaluated for their ability to induce penile erections. A single intracavernosal dose (of a given halogenated derivative of flosequinan) was administered to male Cynomolgus monkeys (Macaca fascicularis). The Cynomolgus monkey was selected because it is an appropriate established non-rodent species to be used as an erectile dysfunction model. Before the application of the test substances the possible erectile effect of dimethylsulfoxide 25% (DMSO) at a dose volume of 0.15 ml was assessed. (Concentrations of test compounds of less than 10 mg/ml were administered in 25% DMSO. Concentrations of 10 mg/ml or greater were administered in 100% DMSO). An initial dose level of 0.625 mg/kg of the test substance and the derivatives were used. If an erectile effect of the initial dose level was observed 1.25 mg/kg and finally 2.5 mg/kg of each test substance was used. Between each dose level and change of test substance there was a wash out phase of three days [except on Days 1 to 4 (Monochloroflosequinan Racemate) and days 40 to 43 (Monofluoroflosequinan) of the study where there was a wash out phase of only two days between treatments]. Dose volume: A dose volume of 0.15 ml per animal was used. The test substances were prepared according to the following scheme. For each test substance 10 mg was diluted in 1 ml of DMSO. After the test substance was completely dissolved the solution was diluted stepwise 1:2 with double distilled water to the required dose level. The test substance was formulated on the day of the dosing and stored at room temperature. No stability test was required when the test substances were formulated on the day of dosing. Remaining test substances were stored at approximately -80° C. Sufficient purpose-bred naive Cynomolgus monkeys (Macaca fascicularis) were obtained from a recognized supplier in order to provide 4 healthy male animals. At the start of study the animals were in the weight range of 4 to 7 kg and approximately 4 to 6 years old. The animals were housed in a climate controlled room to provide a minimum of 10 air changes per hour. Routinely the temperature and relative humidity ranges were between 19-25° C. and 30-70% respectively. Artificial lighting was controlled automatically to give a cycle of 12 hours light and 12 hours dark. The animals were housed singly in stainless steel cages (dimensions: 600 mm×600 mm×800 mm; E. Becker & Co. GmbH, 44579 Castrop-Rauxel, Germany). Each animal was offered twice daily between 50 to 70 g of a commercial pellet diet for primates (Ssniff P10, Ssniff Spezialdiäten GmbH, Ferdinand-Gabriel-Weg 16, 59494 Soest, Germany). Every three months diet was analyzed for specific contaminants. Tap water was provided ad libtum via an automatic watering system or bottles, except during urine collection. The water was periodically analyzed for specific contaminants found to be present in the diet or water at levels that might interfere with achieving the objective of the study. Clinical Observations: In addition to the initial pharmacological effect (penile erection) monitoring, all animals were observed twice daily for signs of ill health or overt toxicity. An individual record was maintained of the clinical condition of each animal. Post-dosing observations were performed at the discretion of the Study Director. All animals were examined at the beginning and the end of the working hours. […] Body weights were recorded once before dosing. Food consumption was not recorded. For proof of erection capability the animals were checked once pre-dose with electrostimulation using a rectal probe under sedation with […]. […] The onset post drug administration and duration of erection were recorded. Table 5 (below) provides an “Erection Score” and “Erection Index” for the same selected halogenated flosequinan derivatives presented in Table 5. […]

[1] = 10 mg/ml intracavernosal, monkey 11539M
[2] = 10 mg/ml intracavernosal, monkey 11543M
[3] = 10 mg/ml intracavernosal, monkey 11584M
[4] = 10 mg/ml intracavernosal, monkey 11590M
[5] = 2.5 mg/ml intracavernosal, monkey 11539M
[6] = 2.5 mg/ml intracavernosal, monkey 11543M
[7] = 2.5 mg/ml intracavernosal, monkey 11584M
[8] = 2.5 mg/ml intracavernosal, monkey 11590M
[9] = 0.625 mg/ml intracavernosal, monkey 11539M
[10] = 0.625 mg/ml intracavernosal, monkey 11543M
[11] = 0.625 mg/ml intracavernosal, monkey 11584M
[12] = 0.625 mg/ml intracavernosal, monkey 11590M

In the case of Cn1cc([S@@+]([O-])CCl)c(=O)c2ccc(F)cc21 (single isomer, unassigned) [(−)-enantiomer of monochloroflosequinan], the “Duration Score” value [1] is reported as 0, the “Onset Score” value [1] is reported as 0 and the “Erection Score” value [1] is reported as 0. For the same compound, the “Duration Score” value [2] was 0, the “Onset Score” value [2] was 0 and the “Erection Score” value [2] was 0. The “Duration Score” value [3] was 0, the “Onset Score” value [3] was 0 and the “Erection Score” value [3] was 0. For the same compound, the “Duration Erection” value [4] was 7 min, the “Duration Score” value [4] was 3 (erection lasting at least 5 minutes but less than 7 minutes) and the “Onset Score” value [4] was 4 (erection onset 1 minute or less (immediate)). The “Onset of Erection” value [4] was “immediate <1 min”, the “Erection Score” value [4] was 10 and the “Erection Index” value (10 mg/ml intracavernosal) was 2.5.

For Cn1cc([S@+]([O-])CCl)c(=O)c2ccc(F)cc21 (single isomer, unassigned) [(+)-enantiomer of monochloroflosequinan], the “Duration Erection” value [5] was less than 1 min, the “Duration Score” value [5] was 1 (erection but transient—less than 1 minute) and the “Onset Score” value [5] was 1 (erection onset longer than 10 minutes). For the same compound, the “Onset of Erection” value [5] was 107* min, the “Erection Score” value [5] was 3 and the “Duration Erection” value [6] was less than 1 min. For the same compound, the “Duration Score” value [6] was 1 (erection but transient—less than 1 minute), the “Onset Score” value [6] was 1* (erection onset longer than 10 minutes) and the “Onset of Erection” value (2.5 mg/ml intracavernosal, monkey 11543M, listed as MONOCHLOROFLOSEQUINAN S(+)) was 34* min and 38* min and 39^a* ejaculation min. The “Erection Score” value [6] was 3, the “Duration Score” value [7] was 1 (erection but transient—less than 1 minute) and the “Onset Score” value [7] was 1 (erection onset longer than 10 minutes). The “Erection Score” value [7] was 3, the “Duration Score” value [8] was 3 (erection lasting at least 5 minutes but less than 7 minutes) and the “Onset Score” value [8] was 4 (erection onset 1 minute or less (immediate)). For the same compound, the “Erection Score” value [8] was 10, the “Erection Index” value (2.5 mg/ml intracavernosal) was 4.8 and the “Duration Score” value [1] was 0. For the same compound, the “Onset Score” value [1] was 4* (erection onset 1 minute or less (immediate)), the “Erection Score” value [1] was 4 and the “Duration Score” value [2] was 0. For the same compound, the “Onset Score” value [2] was 0, the “Erection Score” value [2] was 0 and the “Duration Erection” value [3] was less than 1 min. The “Duration Score” value [3] was 1 (erection but transient—less than 1 minute), the “Onset Score” value [3] was 3* (erection onset between 2 and 4 minutes) and the “Erection Score” value [3] was 5. For the same compound, the “Duration Erection” value [4] was 8 min, the “Duration Score” value [4] was 4 (erection lasting longer than 7 minutes) and the “Onset Score” value [4] was 4 (erection onset 1 minute or less (immediate)). The “Onset of Erection” value [4] was “immediate <1 min”, the “Erection Score” value [4] was 12 and the “Erection Index” value (10 mg/ml intracavernosal) was 5.3. The inducing penile erections was “especially effective”.

With Cn1cc([S+]([O-])C(Cl)Cl)c(=O)c2ccc(F)cc21 (stereo not shown) [dichloroflosequinan, 3-dichloromethylsulfinyl-7-fluoro-1-methyl-4-quinolone] the “Duration Score” value [1] was 0, the “Onset Score” value [1] was 0 and the “Erection Score” value [1] was 0. For the same compound, the “Duration Erection” value [2] was 1 min, the “Duration Score” value [2] was 2 (erection lasting at least 1 minute but less than 5 minutes) and the “Onset Score” value [2] was 4 (erection onset 1 minute or less (immediate)). For the same compound, the “Erection Score” value [2] was 8, the “Duration Erection” value [3] was 1 min and the “Duration Score” value [3] was 2 (erection lasting at least 1 minute but less than 5 minutes). For the same compound, the “Onset Score” value [3] was 4 (erection onset 1 minute or less (immediate)), the “Onset of Erection” value [3] was “immediate <1 min” and the “Erection Score” value [3] was 8. The “Duration Erection” value [4] was 7 min, the “Duration Score” value [4] was 4 (erection lasting longer than 7 minutes) and the “Onset Score” value [4] was 4 (erection onset 1 minute or less (immediate)). The “Onset of Erection” value [4] was “immediate <1 min”, the “Erection Score” value [4] was 12 and the “Erection Index” value (10 mg/ml intracavernosal) was 7.0. For the same compound, the inducing penile erections was “especially effective”.

With Cn1cc([S+]([O-])CCl)c(=O)c2ccc(F)cc21 (racemic) [monochloroflosequinan, 3-chloromethylsulfinyl-7-fluoro-1-methyl-4-quinolone] the “Duration Score” value [9] was 0, the “Onset Score” value [9] was 0 and the “Erection Score” value [9] was 0. The “Duration Erection” value [10] was less than 1 min-^, the “Duration Score” value [10] was 0 and the “Onset Score” value [10] was 0. The “Onset of Erection” value [10] was 70^a* min, the “Erection Score” value [10] was 0 and the “Duration Score” value [11] was 0. The “Onset Score” value [11] was 0, the “Erection Score” value [11] was 0 and the “Duration Score” value [12] was 0. For the same compound, the “Onset Score” value [12] was 0, the “Erection Score” value [12] was 0 and the “Erection Index” value (0.625 mg/ml intracavernosal) was 0. For the same compound, the “Duration Score” value [5] was 0, the “Onset Score” value [5] was 0 and the “Erection Score” value [5] was 0. The “Duration Score” value [6] was 0, the “Onset Score” value [6] was 0 and the “Erection Score” value [6] was 0. For the same compound, the “Duration Score” value [7] was 0, the “Onset Score” value [7] was 0 and the “Erection Score” value [7] was 0. For the same compound, the “Duration Score” value [8] was 0, the “Onset Score” value [8] was 0 and the “Erection Score” value [8] was 0. For the same compound, the “Erection Index” value (2.5 mg/ml intracavernosal) was 0, the “Duration Score” value [1] was 0 and the “Onset Score” value [1] was 0. The “Erection Score” value [1] was 0, the “Duration Score” value [2] was 0 and the “Onset Score” value [2] was 0. The “Erection Score” value [2] was 0, the “Duration Score” value [3] was 0 and the “Onset Score” value [3] was 0. The “Erection Score” value [3] was 0, the “Duration Score” value [4] was 0 and the “Onset Score” value [4] was 0. The “Erection Score” value [4] was 0 and the “Erection Index” value (10 mg/ml intracavernosal) was 0.
